Measurements reported in US5156956A, “Transgultaminase” (Ajinomoto Co., Inc., priority 1987, dated 1992).
Residues, ends and D or L forms follow the SMILES beside them. *: point of attachment. Cbz = O=C(OCc1ccccc1)*

Columns and labels:
BTG-2 [1] = target: T1, BTG-2 (Streptomyces griseocarneus, UniProt A0ABX7RSJ1); test: Substrate specificity: synthetic substrates with hydroxylamine; assay type: biochemical, Streptoverticillium griseocarneum IFO 12776; conditions: for Reactivity of substrate with BTG-2 (relative, Table 1): substrate 5 mM, with hydroxylamine; for Substrate specificity (%) BTG-2: Table 4
T1 construct: Ca2+-independent; made as pre-pro-protein
Procedure: (§1) Measurement of the activity of BTGase is carried out by performing a reaction using benzyloxycarbonyl-L-glutaminyl glycine and hydroxylamine as substrates in the absence of Ca^2+, forming an iron complex with the resulting hydroxamic acid in the presence of trichloroacetic acid, measuring absorption at 525 nm and determining the amount of hydroxamic acid by a calibration curve to calculate the activity. The BTGase activity is measured by the method described below, unless otherwise indicated.
(§2) To 0.05 ml of an enzyme solution is added 0.5 ml of Reagent A and they are mixed with each other. After reacting at 37° C. for 30 minutes, Reagent B is added thereto to discontinue the reaction and form an Fe complex. Thereafter, absorbance is measured at 525 nm. […] Separately, a calibration curve is prepared using L-glutamic acid γ-monohydroxamio acid instead of the enzyme solution, and the amount of hydroxamic acid produced is determined by the difference in absorbance described above. An enzyme activity which produces 1 μmol of hydroxamic acid per 1 minute is defined as 1 unit.
(§3) Using each BTGase, reactions of various synthetic substrates with hydroxylamine were examined. […] In this case, the concentration of various synthetic substrates is 5 mM. In the table, CBZ, Gln, Gly and Asn are abbreviations for benzyloxycarbonyl group, glutaminyl group, glycyl group and asparaginyl group, respectively.

BTGase = test: Substrate specificity, statement on all BTGases; assay type: biochemical, Streptoverticillium; conditions: substrate 5 mM, with hydroxylamine
Procedure: as §3

BTG-3 [2] = target: T2, BTG-3 (Streptomyces cinnamoneus, UniProt Q8GR90); test: Substrate specificity: synthetic substrates with hydroxylamine; assay type: biochemical; conditions: for Reactivity of substrate with BTG-3 (relative, Table 1): substrate 5 mM, with hydroxylamine; for Substrate specificity (%) BTG-3: Table 4
T2 construct: Ca2+-independent; made as pre-pro-protein
T2 sequence (Q8GR90 86-416): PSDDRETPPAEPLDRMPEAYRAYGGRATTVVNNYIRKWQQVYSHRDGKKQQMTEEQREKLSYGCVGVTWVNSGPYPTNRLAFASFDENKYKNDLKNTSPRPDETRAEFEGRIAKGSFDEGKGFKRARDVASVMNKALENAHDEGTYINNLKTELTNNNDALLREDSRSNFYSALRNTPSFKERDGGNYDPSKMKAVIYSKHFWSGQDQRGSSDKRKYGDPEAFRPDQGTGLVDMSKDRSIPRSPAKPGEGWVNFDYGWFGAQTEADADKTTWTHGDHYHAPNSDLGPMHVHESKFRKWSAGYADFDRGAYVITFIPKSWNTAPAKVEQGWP
Procedure: as §1, §2, §3

BTG-1 [3] = target: T3, BTG-1 (Streptomyces mobaraensis, UniProt P81453); test: as above; assay type: biochemical, Streptoverticillium mobaraense IFO 13819; conditions: for Reactivity of substrate with BTG-1 (relative, Table 1): substrate 5 mM, with hydroxylamine; for Substrate specificity (%) BTG-1: Table 4
T3 construct: BTGase is dissolved in the culture solution and can be harvested from the culture filtrate; endogenous in cells; host or cells: Streptoverticillium mobaraense IFO 13819 (natural producer; purified from culture filtrate)
T3 sequence (P81453 77-407): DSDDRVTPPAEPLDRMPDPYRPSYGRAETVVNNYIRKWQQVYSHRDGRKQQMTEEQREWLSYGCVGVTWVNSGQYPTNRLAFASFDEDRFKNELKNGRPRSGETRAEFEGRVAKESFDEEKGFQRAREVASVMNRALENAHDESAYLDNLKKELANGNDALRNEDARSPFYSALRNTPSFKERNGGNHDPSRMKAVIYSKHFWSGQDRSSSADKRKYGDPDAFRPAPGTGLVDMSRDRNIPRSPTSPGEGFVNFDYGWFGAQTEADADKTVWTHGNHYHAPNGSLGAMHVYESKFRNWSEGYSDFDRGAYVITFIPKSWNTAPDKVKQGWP
Procedure: as §1, §2, §3

BTG-3 [4] = target: T2, BTG-3; test: Influence of metal ions on activity; assay type: biochemical; conditions: metal ion 1 mM; None = 100; 30 min
Procedure: as §1, §2

BTG-2 [5] = target: T1, BTG-2; assay type: biochemical, Streptoverticillium griseocarneum IFO 12776; conditions: metal ion 1 mM; None = 100; 30 min
Procedure: as §1, §2

BTG-2 [6] = target: T1, BTG-2; test: biochemical; design: species or system Streptoverticillium griseocarneum IFO 12776; conditions: for inhibition at 1000 µM: read-out: BTG-2 (%) activity with inhibitor
Procedure: as §1, §2

BTG-1 [7] = target: T3, BTG-1; test: biochemical; design: species or system Streptoverticillium mobaraense IFO 13819; conditions: for inhibition at 1000 µM: read-out: BTG-1 (%) activity with inhibitor
Procedure: as §1, §2

BTG-3 [8] = target: T2, BTG-3; test: biochemical; conditions: for inhibition at 1000 µM: read-out: BTG-3 (%) activity with inhibitor
Procedure: as §1, §2

[9] = target: T4, MTGase (transglutaminase of guinea pig liver) (UniProt P08587); test: Substrate specificity: synthetic substrates; assay type: biochemical; conditions: Table 4
T4 construct: from tissue; host or cells: guinea pig liver
T4 sequence (P08587 1-690): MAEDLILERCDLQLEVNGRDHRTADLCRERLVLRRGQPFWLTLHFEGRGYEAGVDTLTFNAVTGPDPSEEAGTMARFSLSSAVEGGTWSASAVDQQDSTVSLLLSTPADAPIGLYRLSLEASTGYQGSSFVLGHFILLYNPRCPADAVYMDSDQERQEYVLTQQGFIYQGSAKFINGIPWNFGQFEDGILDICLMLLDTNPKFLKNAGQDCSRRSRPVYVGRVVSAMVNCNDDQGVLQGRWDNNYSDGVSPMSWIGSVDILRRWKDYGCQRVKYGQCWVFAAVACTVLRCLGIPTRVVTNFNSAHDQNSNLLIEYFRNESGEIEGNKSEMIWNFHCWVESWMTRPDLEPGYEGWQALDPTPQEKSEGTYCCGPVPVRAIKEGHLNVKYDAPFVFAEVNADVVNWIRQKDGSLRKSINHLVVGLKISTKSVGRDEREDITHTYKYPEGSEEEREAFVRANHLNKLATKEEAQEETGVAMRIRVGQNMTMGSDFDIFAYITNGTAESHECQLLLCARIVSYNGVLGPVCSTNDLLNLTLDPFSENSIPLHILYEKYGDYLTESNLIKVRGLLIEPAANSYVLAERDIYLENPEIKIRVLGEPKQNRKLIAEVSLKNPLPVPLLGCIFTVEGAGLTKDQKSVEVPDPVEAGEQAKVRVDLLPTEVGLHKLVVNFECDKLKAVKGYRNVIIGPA
Procedure: Next, properties of BTGases are compared to those of guinea pig liver-derived transglutaminase. The guinea pig liver-derived transglutaminase was prepared by the method described in Published Unexamined Japanese Patent Application No. 149645/83. As will be apparent from Tables 4 and 5, various differences in enzymological properties are noted between transglutaminase of guinea pig liver (hereafter referred to as MTGase) which has been mainly investigated heretofore and BTGases derived from actinomycetes; in particular, differences are noted in temperature stability, molecular weight, isoelectric point and substrate specificity. Further, a difference is noted in that the BTGases of the present invention act in the presence and absence of Ca^2+. Therefore, the respective enzymes of the present invention are different from MTGase in their properties.

BTG-1 [10] = target: T3, BTG-1; test: Influence of metal ions on activity; assay type: biochemical, Streptoverticillium mobaraense IFO 13819; conditions: metal ion 1 mM; None = 100; 30 min
Procedure: as §1, §2

[11] = inhibitor 1 mM, 25° C. for 30 minutes, None = 100

| SMILES | Reactivity of substrate with BTG-2 (relative, Table 1) (BTG-2 [1]) | Reactivity of substrate with BTG-3 (relative, Table 1) (BTG-3 [2]) | Reactivity of substrate with BTG-1 (relative, Table 1) (BTG-1 [3]) | BTG-3 (%) activity with metal ion (BTG-3 [4]) [%] | BTG-2 (%) activity with metal ion (BTG-2 [5]) [%] | BTG-1 (%) activity with metal ion (BTG-1 [10]) [%] | further results |
| --- | --- | --- | --- | --- | --- | --- | --- |
| NC(=O)C[C@H](NC(=O)OCc1ccccc1)C(=O)NCC(=O)O [CBZ--Asn--Gly, benzyloxycarbonylasparaginyl glycine] (Cbz-Asn-Gly-OH) | 0 | 0 | 0 | – | – | – | Reactivity of synthetic substrate with the BTGases (in words) (BTGase): No BTGase reacts |
| [Cl-].[Cl-].[Mg+2] [MgCl2] | – | – | – | 103 | 104 | – | – |
| O=C(O)CI [Monoiodoacetic acid] | – | – | – | – | – | – | inhibition at 1000 µM (BTG-2 [6]): 50%; Effect of inhibitor on activity of all BTGases (in words) (all BTGases): inhibited; inhibition at 1000 µM (BTG-1 [7]): 64%; inhibition at 1000 µM (BTG-3 [8]): 67% |
| [Cl][Ni][Cl] [NiCl2] | – | – | – | – | 100 | – | – |
| O=C(O)CN(CCN(CC(=O)O)CC(=O)O)CC(=O)O [EDTA] | – | – | – | – | – | – | inhibition at 1000 µM (BTG-2 [6]): 98%; inhibition at 1000 µM (BTG-1 [7]): 102%; inhibition at 1000 µM (BTG-3 [8]): 99% |
| O=S(=O)(F)Cc1ccccc1 [PMSF, phenylmethylsulfonyl fluoride] | – | – | – | – | – | – | BTG-2 (%) activity with inhibitor (BTG-2 [6]; [11]): 95%; BTG-1 (%) activity with inhibitor (BTG-1 [7]; [11]): 104%; BTG-3 (%) activity with inhibitor (BTG-3 [8]; [11]): 101% |
| CCOC(=O)CNC(=O)[C@H](CCC(N)=O)NC(=O)OCc1ccccc1 [CBZ--Gln--Gly--OEt] (Cbz-Gln-Gly-OEt) | 44 | 42 | 63 | – | – | – | Substrate specificity (%) BTG-2 (BTG-2 [1]): 44%; Substrate specificity (%) BTG-3 (BTG-3 [2]): 42%; Substrate specificity (%) BTG-1 (BTG-1 [3]): 63%; Substrate specificity (%) MTGase [9]: 122% |
| [Cl-].[Na+] [NaCl] | – | – | – | 101 | 102 | 99 | – |
| NCC(=O)N[C@@H](CCC(N)=O)C(=O)NCC(=O)O [Gly--Gln--Gly, glycylglutaminyl glycine] (H-Gly-Gln-Gly-OH) | 0 | 0 | 0 | – | – | – | Reactivity of synthetic substrate with the BTGases (in words) (BTGase): No BTGase reacts |
| [Ba+2].[Cl-].[Cl-] [BaCl2] | – | – | – | 105 | 99 | 101 | – |
| CC(=O)[O-].CC(=O)[O-].[Pb+2] [Pb(CH3 COO)2] | – | – | – | 100 | 97 | 97 | – |
| NC(=O)CC[C@H](NC(=O)OCc1ccccc1)C(=O)N[C@@H](CCC(N)=O)C(=O)NCC(=O)O [CBZ--Gln--Gln--Gly] (Cbz-Gln-Gln-Gly-OH) | 39 | 35 | 38 | – | – | – | Substrate specificity (%) BTG-2 (BTG-2 [1]): 39%; Substrate specificity (%) BTG-3 (BTG-3 [2]): 35%; Substrate specificity (%) BTG-1 (BTG-1 [3]): 38%; Substrate specificity (%) MTGase [9]: 288% |
| NC(=O)CC[C@H](NC(=O)OCc1ccccc1)C(=O)NCC(=O)O [CBZ--Gln--Gly, benzyloxycarbonylglutaminyl glycine] (Cbz-Gln-Gly-OH) | 100 | 100 | 100 | – | – | – | Substrate specificity (%) BTG-2 (BTG-2 [1]): 100%; Reactivity of synthetic substrate with the BTGases (in words) (BTGase): reactivity is the highest; Substrate specificity (%) BTG-3 (BTG-3 [2]): 100%; Substrate specificity (%) BTG-1 (BTG-1 [3]): 100%; Substrate specificity (%) MTGase [9]: 100% |
| [Cl][Fe]([Cl])[Cl] [FeCl3] | – | – | – | 106 | 104 | 96 | – |
| [Cl-].[Cl-].[Sr+2] [SrCl2] | – | – | – | 100 | 101 | 100 | – |
| NC(=O)CC[C@H](NC(=O)CNC(=O)CNC(=O)OCc1ccccc1)C(=O)NCC(=O)O [CBZ--Gly--Gly--Gln--Gly] (Cbz-GGQG-OH) | 58 | 60 | 23 | – | – | – | Substrate specificity (%) BTG-2 (BTG-2 [1]): 58%; Substrate specificity (%) BTG-3 (BTG-3 [2]): 60%; Substrate specificity (%) BTG-1 (BTG-1 [3]): 23%; Substrate specificity (%) MTGase [9]: 27% |
| NC(=O)CC[C@H](NC(=O)CNC(=O)OCc1ccccc1)C(=O)NCC(=O)NCC(=O)O [CBZ--Gly--Gln--Gly--Gly] (Cbz-GQGG-OH) | 12 | 11 | 8 | – | – | – | Substrate specificity (%) BTG-2 (BTG-2 [1]): 12%; Substrate specificity (%) BTG-3 (BTG-3 [2]): 11%; Substrate specificity (%) BTG-1 (BTG-1 [3]): 8%; Substrate specificity (%) MTGase [9]: 126% |
| NC(=O)CC[C@H](NC(=O)OCc1ccccc1)C(=O)O [CBZ--Gln, benzyloxycarbonyl glutamine] | 0 | 0 | 0 | – | – | – | Reactivity of synthetic substrate with the BTGases (in words) (BTGase): No BTGase reacts |
| [Cl][Mn][Cl] [MnCl2] | – | – | – | 97 | 97 | – | – |
| [Cl-].[K+] [KCl] | – | – | – | 105 | 99 | 96 | – |
| [Cl-].[Cl-].[Co+2] [CoCl2] | – | – | – | 103 | 103 | 103 | – |
